Assay type in all cases: in vivo
In one assay the test system is locomotor activity. As to the kind of experiment: Mouse Screen (decrease in locomotor activity). The conditions noted are these: po, mouse, lowest dose producing obvious decrease in locomotor activity; for minimal effective dose: read-out: Screen (mouse) MED. From the text: (§1) Results given in: mg/kg po/mouse
Mouse Screen: The minimal effective dose (MED) is the lowest oral dose producing an obvious decrease in locomotor activity, using observational techniques. Groups of 3 mice are given decreasing oral doses at 0.5 log intervals (300, 100, 30 . . . etc.) until no behavioral effects are evident. Decrease of locomotor activity is indicative of general central nervous system depressant activity.

Assay [1] deals with amphetamine hyperactivity. The experiment in a line: Mouse Anti-Amphetamine Activity (A.A.). The conditions noted are these: po, mouse, d-amphetamine sulfate 5 mg/kg sc 1 hour after compound, 60 minutes recording; for ED50: read-out: A.A. (mouse) ED50. On the procedure: as §1
Mouse Anti-Amphetamine Activity: Groups of 5 mice are given d-amphetamine sulfate 5 mg/kg sc 1 hour after oral administration of graded doses of test compound. The mice are placed in photocell activity units immediately after amphetamine administration and locomotor activity is recorded for 60 minutes. The ED50 is calculated as the dose causing a 50% reduction in locomotor activity relative to the activity of the amphetamine-treated control mice. Amphetamine antagonism at non-toxic doses appears to correlate with major tranquilizer activity in man.

In assay [2] the test system is Conditioned Avoidance Response. As to the kind of experiment: Mouse Conditioned Avoidance Response (C.A.R.). As to conditions: po, mouse, tested 1, 2, and 4 hours after administration; for ED50: read-out: C.A.R. (mouse) ED50. On the procedure:
(§2) Results given in: mg/kg po/mouse mg/kg po/rat
(§3) Mouse and Rat Conditioned Avoidance Response: Mice and rats are trained to jump out of a pit onto a ledge to avoid shock when presented with a light and sound conditioned stimulus. The animals are tested 1, 2, and 4 hours after administration of the test compound. Three to 4 dose levels and groups of 4-8 animals/dose are used. The ED50 is the dose producing a block of the C.A.R. in 50% of the animals. Blocking of the C.A.R. at non-toxic doses appears to correlate with major tranquilizer activity in man.

Another assay deals with taming. The experiment in a line: Rhesus Monkey Taming Effects. As to conditions: po, rhesus monkey; for minimal effective dose: Macaca mulatta, read-out: Taming (monkey) MED. On the procedure:
Results given in: mg/kg po/monkey
Rhesus Monkey Taming Effects: Compounds are administered orally to groups of six rhesus monkeys. The behavior of the animals is then evaluated by observational means. Taming effects are determined by the ability of the observer to approach and touch the monkey. Compounds with major tranquilizer activity in man can produce a state of passive tameness in the rhesus monkey wherein it can be touched without provoking any of the threatening or aggressive behavior seen in the normal animal. The MED is the minimal oral dose at which some taming effect can be observed.

Assay [3] relates to Conditioned Avoidance Response. The experiment in a line: Rat Conditioned Avoidance Response (C.A.R.). As to conditions: po, rat, tested 1, 2, and 4 hours after administration. As for the experimental part: as §2, §3
For assay [4], the system named is Conditioned Avoidance Response. The experiment in a line: Dog Conditioned Avoidance Response (C.A.R.). As to conditions: po, dog, 1, 2, and 4 hours after administration; for ED50: Canis lupus familiaris, read-out: C.A.R. (dog) ED50. On the procedure: Results given in: mg/kg po/dog
Dog Conditioned Avoidance Response: Dogs are trained to raise a forelimb when presented with a conditioned stimulus (light) in order to avoid an electric shock. Blocks of 10 trials are given to groups of four dogs during a pretreatment period and at 1, 2, and 4 hours after oral administration of test compound. The ED50 values are calculated as the dose causing 50% of the animals to show five or more incorrect responses. Blocking of the C.A.R. at non-toxic doses appears to correlate with major tranquilizer activity in man.

The subject of assay [5] is approach-avoidance ("conflict") situation. As to the kind of experiment: Rat Conflict (Approach-Avoidance) Test. As to conditions: for Conflict (rat) MED / minimal effective dose: po, reexposed after 1 or 2 hours, rat; for minimal effective dose: read-out: Conflict (rat) MED. As for the experimental part:
Results given in: mg/kg po/rat
Rat Conflict (Approach-Avoidance) Test: Food deprived rats are trained to pass from one compartment to an adjacent one to obtain food. The training consists of three exposures to the test situation on day one of the experiment. The rats are given limited (1-2 hr) free access to food in their home cages on day one and are then food deprived for at least 18 hours. On day two of the experiment, the rats are given a control exposure to the test situation followed by a second exposure after 1/2 to 1 hour in which they are shocked after crossing and eating. Groups of 6-8 rats are then dosed orally with solvent or test compound and then reexposed to the test situation after 1 or 2 hours.
This effect is dose-related (and the MED is the minimum dose at which this effect is obtained); rats dosed with solvent only consistently show a high level of fear as evidenced by decreased mobility and absence of feeding when placed in the test situation after receiving a shock.

In the case of “3-(exo-7-norcarylmethyl)-1,2,3,4,8,9-hexahydropyrido[4',3':2,3]indolo[1,7- ab][1]benzazepine hydrochloride [No. 10]”, the “Screen (mouse) MED” value in the assay with locomotor activity lay in the range of 10 to 30 mg/kg. Besides, the “A.A. (mouse) ED50” value in assay [1] lay within 3 to 10 mg/kg. The “C.A.R. (mouse) ED50” value in assay [2] was in the range of 10 to 30 mg/kg. The “Taming (monkey) MED” value in the assay on taming came to 10 mg/kg.
Turning to `C#CCN1CCc2c(c3cccc4c3n2-c2ccccc2CC4)C1.Cl` [No. 19, 1,2,3,4,8,9-hexahydro-3-(2-propynyl)pyrido[4',3':2,3]indolo[1,7-ab][1]benzazepine hydrochloride], the minimal effective dose in the assay on locomotor activity lay within 10 to 30 mg/kg. Further, the ED50 (in general, the midpoint of the dose-response relation) was 30 to 100 mg/kg in assay [1] and 20 mg/kg in assay [2].
In the case of “1,2,3,4,8,9-hexahydro-3-[(4-methylbicyclo[2.2.2]oct-2-en-1-yl)methyl]pyrido[4', 3':2,3]indolo[1,7-ab][1]benzazepine hydrochloride [Example 16]”, the “Screen (mouse) MED” value in the assay with locomotor activity lay in the range of 100 to 300 mg/kg. The “A.A. (mouse) ED50” value in assay [1] was determined as 60 mg/kg. Further, the “C.A.R. (mouse) ED50” value in assay [2] is 30 to 60 mg/kg. For the same molecule, in assay [3], the “C.A.R. (rat) ED50” value came out at 30 mg/kg. The “C.A.R. (dog) ED50” value in assay [4] is given as above 10 mg/kg. Also, the “Taming (monkey) MED” value with taming amounted to 20 mg/kg. Moreover, the “Conflict (rat) MED” value in assay [5] lay within 10 to 20 mg/kg.
Turning to “3-(1-adamantylmethyl)-1,2,3,4,8,9-hexahydropyrido[4',3':2,3]indolo[1,7-ab][1]benzazepine hydrochloride [No. 11]”, the “Screen (mouse) MED” value in the assay on locomotor activity was 3 to 10 mg/kg. Also, the “A.A. (mouse) ED50” value in assay [1] turned out to be 1 mg/kg. In addition, in assay [2], the “C.A.R. (mouse) ED50” value is 1 to 3 mg/kg. In addition, in assay [3], the “C.A.R. (rat) ED50” value came to 6 mg/kg. Also, the “Taming (monkey) MED” value in the assay on taming is 1 to 3 mg/kg. In addition, in assay [5], the “Conflict (rat) MED” value was above 40 mg/kg.
In the case of `Cl.c1ccc2c(c1)CCc1cccc3c4c(n-2c13)CCN(CC1CCCCC1)C4` [No. 8, 3-(cyclohexylmethyl)-1,2,3,4,8,9-hexahydropyrido[4',3':2,3]indolo[1,7-ab][1]benzazepine hydrochloride], the minimal effective dose in the assay with locomotor activity was 3 to 10 mg/kg; in the assay on taming, 1 to 3 mg/kg; in assay [5], above 40 mg/kg. In addition, the ED50 amounted to 2 mg/kg in assay [1], 20 mg/kg in assay [2], 30 mg/kg in assay [3] (read-out: C.A.R. (rat) ED50) and 10 mg/kg in assay [4].
With “3-[(cis,cis-2,3-dimethylcyclopropyl)methyl]-1,2,3,4,8,9-hexahydropyrido[4',3':2,3]indolo[1,7-ab][1]benzazepine hydrochloride [No. 14]”, the “Screen (mouse) MED” value in the assay with locomotor activity lay within 10 to 30 mg/kg. In addition, the “A.A. (mouse) ED50” value in assay [1] was found to be 20 mg/kg. Moreover, the “C.A.R. (mouse) ED50” value in assay [2] is reported as 20 mg/kg. The “Taming (monkey) MED” value in the assay with taming is reported as above 20 mg/kg.
Consider `CCCC(C)(COC(N)=O)COC(N)=O` [meprobamate, reference compound], for which the “decreased fear in the test animals, in words” value in assay [5] (rats cross to obtain food despite earlier shock, dose-related) is listed as “apparent decreased fear in the test animals”.
On to “3-[cis-1,6-dimethyl-endo-3-norcaren-7-yl)methyl]-1,2,3,4,8,9-hexahydropyrido[4',3':2,3]indolo[1,7-ab][1]benzazepine [No. 13]”, for which the “Screen (mouse) MED” value in the assay on locomotor activity fell in the range of 1 to 3 mg/kg.
“3-(1-cyclopropylethyl)-1,2,3,4,8,9-hexahydropyrido[4',3':2,3]indolo[1,7-ab][1]benzazepine hydrochloride [Example 20]”: the “Screen (mouse) MED” value with locomotor activity was in the range of 30 to 100 mg/kg.
As for “3-[(2,3-dimethyl-2-cyclopropen-1-yl)methyl]-1,2,3,4,8,9-hexahydropyrido[4',3':2,3]indolo[1,7-ab][1]benzazepine hydrochloride [No. 12]”, the “Screen (mouse) MED” value in the assay on locomotor activity was 10 to 30 mg/kg.
As for “3-[(3-cyclohexen-1-yl)methyl]-1,2,3,4,8,9-hexahydropyrido[4',3':2,3]indolo[1,7-ab][1]benzazepine hydrochloride [No. 9]”, in the assay on locomotor activity, the “Screen (mouse) MED” value fell in the range of 3 to 10 mg/kg. The “A.A. (mouse) ED50” value in assay [1] was 5 mg/kg.
Take `CC1(CN2CCc3c(c4cccc5c4n3-c3ccccc3CC5)C2)CC1.Cl` [No. 5, 1,2,3,4,8,9-hexahydro-3-[(1-methylcyclopropyl)methyl]pyrido[4',3':2,3]indolo[1,7-ab][1]benzazepine hydrochloride]: the minimal effective dose with locomotor activity is 10 to 30 mg/kg; in the assay with taming, 10 to 30 mg/kg; in assay [5], 10 to 20 mg/kg. Further, the results for the ED50 in assay [1], in assay [2] and in assay [4] were 3 to 10 mg/kg, 10 to 30 mg/kg and 10 to 20 mg/kg, respectively.
As for “3-isobutyl-1,2,3,4,8,9-hexahydropyrido-[4', 3':2,3]indolo[1,7-ab ][1]benzazepine hydrochloride [No. 1, reference compound]”, the “Screen (mouse) MED” value in the assay on locomotor activity was 100 to 300 mg/kg. Also, the “A.A. (mouse) ED50” value in assay [1] is recorded as above 100 mg/kg. The “C.A.R. (rat) ED50” value in assay [3] is reported as above 40 mg/kg. For the same molecule, in the assay with taming, the “Taming (monkey) MED” value is on record as above 20 mg/kg. Further, the “Conflict (rat) MED” value in assay [5] is reported as above 40 mg/kg.
Consider “1,2,3,4,8,9-hexahydro-3-[(4-methylbicyclo[2.2.2]oct-1-yl)methyl]pyrido[4',3':2,3]indolo[1,7-ab][1]benzazepine hydrochloride [Example 15]”, for which the “Screen (mouse) MED” value in the assay with locomotor activity lay in the range of 10 to 30 mg/kg. The “A.A. (mouse) ED50” value in assay [1] was 3 to 10 mg/kg. The “C.A.R. (mouse) ED50” value in assay [2] is 10 to 30 mg/kg. The “Taming (monkey) MED” value with taming is reported as above 10 mg/kg.
In the case of “3-(2-adamantylmethyl)-1,2,3,4,8,9-hexahydropyrido[4',3':2,3]indolo[1,7-ab][1]benzazepine hydrochloride [Example 11]”, in the assay on locomotor activity, the “Screen (mouse) MED” value lay within 100 to 300 mg/kg. Besides, the “A.A. (mouse) ED50” value in assay [1] is above 100 mg/kg. Besides, the “C.A.R. (mouse) ED50” value in assay [2] is 30 mg/kg. Also, the “C.A.R. (rat) ED50” value in assay [3] was above 40 mg/kg.
Take “1,2,3,4,8,9-hexahydro-3-[(trans-2-methylcyclopropyl)methyl]pyrido[4',3':2,3]indolo[1,7-ab][1]benzazepine hydrochloride [No. 4]”: the “Screen (mouse) MED” value with locomotor activity was in the range of 10 to 30 mg/kg. For the same molecule, the “A.A. (mouse) ED50” value in assay [1] is listed as 6 mg/kg. Besides, in assay [2], the “C.A.R. (mouse) ED50” value was found to be 20 mg/kg. Moreover, the “Taming (monkey) MED” value with taming is 3 to 10 mg/kg. Also, the “Conflict (rat) MED” value in assay [5] was above 40 mg/kg.
Turning to “1,2,3,4,8,9-hexahydropyrido[4', 3':2,3] indolo[1,7-ab][1]benzazepine [Example 1]”, the “Screen (mouse) MED” value in the assay on locomotor activity lay within 10 to 30 mg/kg. In assay [1], the “A.A. (mouse) ED50” value is listed as 10 mg/kg. The “C.A.R. (mouse) ED50” value in assay [2] is given as above 40 mg/kg. The “C.A.R. (rat) ED50” value in assay [3] is recorded as above 40 mg/kg. Moreover, the “Taming (monkey) MED” value in the assay with taming fell in the range of 20 to 30 mg/kg. Besides, in assay [5], the “Conflict (rat) MED” value is above 40 mg/kg.
Turning to “3-(2-butynyl)-1,2,3,4,8,9-hexahydropyrido[4',3':2,3]indolo[1,7-ab][1]benzazepine hydrochloride [No. 20]”, in the assay on locomotor activity, the “Screen (mouse) MED” value lay in the range of 10 to 30 mg/kg. The “A.A. (mouse) ED50” value in assay [1] is listed as 6 mg/kg. Moreover, the “C.A.R. (mouse) ED50” value in assay [2] lay in the range of 10 to 30 mg/kg. In addition, the “C.A.R. (dog) ED50” value in assay [4] is listed as above 40 mg/kg. In addition, the “Taming (monkey) MED” value in the assay with taming fell in the range of 1 to 3 mg/kg. Besides, the “Conflict (rat) MED” value in assay [5] is on record as above 40 mg/kg.

These data come from US3959300A, “Novel indolobenzazepine derivatives, useful as tranquilizers” (priority 1974, dated 1976).
